Laboratory results reported in patent publication US5212160A, “3-L-(5-thioxo-L-prolyl)thiazolidine-4-carboxylic acid and derivatives therefrom, processes for the preparation thereof and pharmaceutical compositions containing them” (Poli Industria Chimica S.p.A., priority 1990, dated 1993).
Where a SMILES comes first, the peptide text is derived from it. [ ]: non-standard residue; d: D form. pGlu = O=C1CC[C@@H](C(=O)O)N1; Thz = O=C(O)[C@@H]1CSCN1

What was measured:
[1] = tested on: prednisolone-immunodepressed murine peritoneal macrophages; test: Superoxide anion production by prednisolone-immunodepressed murine peritoneal macrophages (cytochrome C reduction, PMA stimulated); assay type: in vivo, mice; details: for Reduced cytochrome C nmoles/1 × 10^6 macrophages (mean ± s.e.): 200 mg/kg/die i.p. + prednisolone 0.5 mg/kg/die s.c., 11 days, macrophages stimulated with phorbol myristate acetate; for Activity on superoxide anion production compared with PGT: same weight dosage as PGT
Experimental: Since the production of the superoxide anion (O2.) plays an important role in macrophage antimicrobial activity (N. P. Cumming, M. J. Pabst, J. Exp. Med., 152, 1659, 1980), the test for stimulation of the superoxide anion production in macrophages by medicaments is very important in the evaluation of the immuno-stimulating activity. Therefore, O2. production in isolated peritoneal macrophages from prednisolone-immunodepressed animals treated with the compounds of the invention was evaluated. Mice were treated subcutaneously for 11 days with 0.5 mg/kg/day with prednisolone and with the tested compounds at a dose of 100 mg/kg intraperitoneally twice a day, whereas the day of killing they received the only compounds of the invention. Then macrophages were isolated by means of peritoneal washing and cultured in RPMI-1640 added with 10% bovine foetal serum at a concentration of 1×10^6 cells/ml and at a temperature of +37° C. 1 ml aliquots of the cell suspension were incubated for 15 min. at 37° C. with cytochrome C from horse hearth and stimulated with phorbol myristate acetate (H. Nielsen, Eur. J. Clin. Pharmacol., 30, 99, 1986). After that, a spectrophotometric determination of reduced ferricytochrome C at λ=550 nm was carried out, using an extinction coefficient E (550)=29.5 mM.

[2] = Antitoxic activity: protection of rats against formaldehyde toxicity; assay type: in vivo, COBS CD(SD) Rats; details: 0.5 mM/kg oral (2 administrations); formaldehyde 900 mg/kg per os; mortality up to 72 hours
Experimental: (§1) The antitoxic activity was tested by determining the capability of the compounds of the invention to protect rats against formaldehyde and acetaldehyde toxicities (Sprince et al., Agents and Actions, 9, 407, 1979). COBS CD(SD) Rats (C. River) weighing 180-200 g fasted since the night before were orally administered with the test compounds half an hour before and 5 hours after the oral administration of the toxic agent. Formaldehyde was administered at the dose of 900 mg/kg per os and acetaldehyde at the dose of 2150 mg/kg per os; mortality was controlled up to 72 hours later. […] The activity of the compounds of the invention is similar to that of ascorbic acid and L-cysteine. Since acetaldehyde and formaldehyde are an important portion of the toxic agents contained in cigarette smoke, these novel compounds are very important in the treatment of all the lung pathologies connected to tobacco abuse or to atmosphere pollution. The antiradical activity was tested against doxorubicin mortality in the mouse (R. D. Olson et al., Life Sci., 29, 1393, 1981). Groups of 10 male CD-1 mice (C. River) weighing 18-20 g were treated orally with the tested compounds; one hour later doxorubicin was administered at the dose of 22 mg/kg i.p. (10 ml/kg). […]

[3] = Antitoxic activity: protection of rats against acetaldehyde toxicity; assay type: in vivo, COBS CD(SD) Rats; details: 0.5 mM/kg oral (2 administrations); acetaldehyde 2150 mg/kg per os; mortality up to 72 hours
Experimental: as §1

[4] = Antiradical activity: protection against doxorubicin mortality in the mouse; assay type: in vivo, male CD-1 mice; details: 0.5 mM/kg per os 4 times in two days; doxorubicin 22 mg/kg i.p.; mortality checked for 14 days
Experimental: as §1

O=C1CC[C@@H](C(=O)N2CSC[C@H]2C(=O)O)N1 [PGT, 3-L-pyroglutamyl-L-thiazolidine-4-carboxylic acid, reference compound] ([pGlu]-[Thz]-OH)
Reduced cytochrome C nmoles/1 × 10^6 macrophages (mean ± s.e.) [1]: 8.33 ± 0.77 nmoles/1 × 10^6 macrophages

CCOC(=O)[C@@H]1CSCN1C(=O)[C@@H]1CCC(=S)N1 [Ia, Ethyl 3-L-(L-5-thioxoprolyl)thiazolidine-4-carboxylate]
Reduced cytochrome C nmoles/1 × 10^6 macrophages (mean ± s.e.) [1]: 9.15 ± 0.68 nmoles/1 × 10^6 macrophages | Activity on superoxide anion production compared with PGT [1]: higher activities than that of PGT | Protection against formaldehyde mortality [2]: 60% | Protection against acetaldehyde mortality [3]: 70% | Protection against doxorubicin mortality [4]: 40%

O=C(O)[C@@H]1CSCN1C(=O)[C@@H]1CCC(=S)N1 [Ib, 3-L-(5-thioxoprolyl)thiazolidine-4-carboxylic acid]
Reduced cytochrome C nmoles/1 × 10^6 macrophages (mean ± s.e.) [1]: 9.17 ± 0.68 nmoles/1 × 10^6 macrophages | Activity on superoxide anion production compared with PGT [1]: higher activities than that of PGT | Protection against formaldehyde mortality [2]: 70% | Protection against acetaldehyde mortality [3]: 60% | Protection against doxorubicin mortality [4]: 50%
